In patent publication US9561234B2, “Methods for treating diseases of the retina” (Allergan, Inc., priority 2010, dated 2017):
“Also recorded” adds a separate entry of the source.

Legend:
ARPE-19 cells = assay: Cell viability assay: protection of RPE cells from tBH oxidative stress; format: cell-based; details: for PROTECTION (%) AT 10 uM: protection of RPEs from oxidative stress (0.3 mM tBH), ARPE-19 cells
Description: (§1) ARPE-19 cells from ATCC were grown in DEME/F12 medium supplemented with 10% Fetal Bovine Serum (FBS) and split into 96-well plates at a density of 10,000 cells per well. Cells were incubated overnight in 0.1% FBS medium before addition of compound/drug. Stocks of compounds of interest were made at different concentrations and added to ARPE-19 cells in 0.1% FBS medium for one hour.
After one hour of compound/drug pretreatment, cells were incubated with 0.3 mM tert-butyl hydroperoxide (tBH) for 3 hours followed by three times of washing and replacement with fresh drug and medium (0.1% FBS medium) for overnight. […] Error bars, SEM. n=3.

[1] = test system: IL-8 secretion from RPE cells (ARPE-19); assay: IL-8 assay: Poly I:C induced IL-8 secretion from RPE cells; format: cell-based; details: 1 ug/ml poly I:C, 24 hours; FIG. 1B
Description: as §1
After one hour of drug pretreatment, cells were incubated with 1 ug/ml polyl:C for 24 hours. The cell culture supernatant was used to measure IL-8 production with IL-8 ELISA Kit (R&D Systems, D8000C). Error bars, SEM. n=3.

blue light exposed rats [2] = assay: Blue light study: retinal thickness by optical coherence tomography; format: in vivo, Sprague-Dawley (SD) rats; details: IP once per day for 3 days; OCT 7-10 days post blue light; FIG. 3
Description: Drug treatment was started 2 days before blue light exposure. Animals received olanzapine IP injection once per day for 3 days and the last dosing was 1 hour before blue light exposure. Rats were dark adapted for 24 hours before they were exposed to blue light with lux intensity of ˜6-7 k for 4 hours. Right after the blue light exposure, the rats were dark adapted again for another 3 days before returning to normal room light (12-hour light/12-hour dark). Optical coherence tomography (OCT) was used to evaluate the retinal thickness change caused by blue light at 7-10 days post blue light exposure. Error bars, SEM. OS=Left Eye, OD=Right Eye.
(§2) Four to five month old Sprague-Dawley (SD) male rats were used in the following study. Drug treatment was started 2 days before blue light exposure. Animals received olanzapine IP injection once per day for 3 days and the last dosing was 1 hour before blue light exposure.
For intravitreal injection (IVT), animals received olanzapine (having the structure shown below) 1 hour before blue light exposure. For topical administration, the drug was given 24 hours (BID) and one hour (QI) before blue light exposure. Water was used for parallel control vehicle IP/IVT injection or topical administration. Rats were dark adapted for 24 hours before they were exposed to blue light with lux intensity of ˜6-7 k for 4 hours. […]

[3] = test system: C57B6 mice with oxygen-induced retinopathy; assay: Oxygen-induced retinopathy (hyperoxia): retinal neovascularization; format: in vivo; details: gavage once daily P10 through P16; evaluated on P17; FIG. 10
Description: Litters of newborn mice and their dams were placed in a 75% oxygen chamber from P7 to P12. The chamber contained enough food and water for 5 days and was opened only to allow drug administration to the animals. The mice were returned to room air with normal oxygen content on P12. Olanzapine in water or VEH (water) was administered once daily by gavage beginning on P10 and continuing through P16. Retinal neovascularization was evaluated on P17 after 5 days of exposure of the animals to room air. Error bars, SEM.
Oxygen-induced retinopathy (OIR)/Hyperoxia was induced in C57B6 mice using the protocol reported by Smith et al. (Smith L E, Wesolowski E, McLellan A, et al. Oxygen-induced retinopathy in the mouse. Invest Ophthalmol Vis Sci. 1994; 35(1):101-111). […] Retinal neovascularization was evaluated on P17 after 5 days of exposure of the animals to room air.
Retinal neovascularization was evaluated by angiography in mice subjected to OIR as described previously (Smith L E, Wesolowski E, McLellan A, et al. Oxygen-induced retinopathy in the mouse. Invest Ophthalmol Vis Sci. 1994; 35(1):101-111). […] Quantification of retinal neovascularization was performed as described previously (Chen J, Connor K M, Aderman C M, Smith L E. Erythropoietin deficiency decreases vascular stability in mice. J Clin Invest. 2008; 118(2):526-533). […]

[4] = test system: laser induced choroidal neovascularization in rats; assay: Choroidal neovascularization (CNV) assay, laser induced; format: in vivo, Brown Norway rats; details: i.p. 1 mg/kg once a day for 3 days plus intravitreal day 1, 4 & 6; 11 days after laser; FIG. 11
Description: Brown Norway rats (Charles Rivers), weighing 250-300 grams each were used in the study. Drug treatment was started 2 days prior to Laser treatment. Olanzapine was given i.p. (1 mg/kg) once a day for 3 days (day −2, −1 & 0). The last dose on day 0 was delivered about 1 hr before laser treatment. Phosphate buffered saline (PBS) was used for parallel control vehicle IP injection. On day zero of the laser procedure, rat eyes (pupil) were dilated with Tropicamide HCl HCl (1%) and Ak-dilate (10%). Rats were then anesthetized with intramuscular injection of 40 mg/ml Ketamine HCL and 12 mg/ml Xylazine HCl. The fundo's was visualized using a microscope slide coverslip with Refresh Liquigel eye drops as an optical coupling agent. For each animal, 6 laser spots in each eye (360 mW power, 0.07 sec. duration, 50 μm spot size) were made with argon laser (Coherent Inc.; Santa Clara, Ca.) concentrically at approximately equal distances around the optic disc, between every 2 retinal vessels. A single 5-ul volume of the drug (olanzapine) or PBS was injected into the vitreous cavity at day 1, 4 & 6 post-laser photocoagulation procedure. At 11 days after laser treatment, animals were sacrificed by CO2 exposure and CNV formation was assayed as described previously. […] The area of fluorescence was quantified using Metamorph image analysis software (RPI, Natick, Mass.).

blue light exposed rats [5] = assay: H&E staining and immuno-histochemistry of rat ocular tissue after blue light exposure; format: in vivo, Sprague-Dawley rats; details: IP, 2-3 wks after blue light exposure
Description: as §2
(§3) For intravitreal injection (IVT), animals received olanzapine (having the structure shown below) 1 hour before blue light exposure. For topical administration, the drug was given 24 hours (BID) and one hour (QI) before blue light exposure. Water was used for parallel control vehicle IP/IVT injection or topical administration. Rats were dark adapted for 24 hours before they were exposed to blue light with lux intensity of ˜6-7 k for 4 hours. Right after the blue light exposure, the rats were dark adapted again for another 3 days before returning to normal room light (12-hour light/12-hour dark). Optical coherence tomography (OCT) was used to evaluate the retinal thickness change caused by blue light at 7-10 days post blue light exposure. Error bars, SEM. (FIG. 3).
Sprague-Dawley male rats 2-3 weeks after blue light exposure were euthanized with CO2 and orbits enucleated. Eyes were fixed in Davidson's fixative overnight at room temperature and transferred to 70% ethanol for 24 hrs. Further tissue processing was done by serial dehydration in 80%, 95% & 100% alcohol and Propar, followed by paraffin embedding. Whole rat eyes were transversely cut in the vertical meridian proceeding from nasal to temporal side, using a Microtome (RM2255; Leica Microsystems). Using optic nerve head as the landmark, a total of 45 serial sections with 5 microns/section were collected on 15 glass slides. Slide #s 1, 5, 10 & 15 were deparaffinized and sequentially stained using hematoxylin (nucleus) and eosin (cytoplasm) as per standard protocol to compare photoreceptor/RPE lesion between experimental groups. The rest of the slides were used to determine expressions of Rhodopsin, RPE65 and GFAP using the specific antibodies by standard immune-histochemistry techniques.

blue light exposed rats [6] = assay: Electroretinography (ERG) assay after blue light exposure; format: in vivo, Sprague-Dawley (SD) rats
Description: as §2, §3
Bilateral Flash Electroretinograms were recorded in SD rats using the Espion E^2 electroretinography system. On the day of ERG, Animals were dark adapted for at least 30 minutes. Their eyes were dilated with Tropicamide HCl (1%) and Ak-dilate (10%). Prior to ERG recording, the animal was anesthetized with intramuscular injection of 40 mg/ml Ketamine HCl and 12 mg/ml Xylazine HCl, and placed onto heated platform. The ground needle was placed in the skin under the arm and the reference needle was place in the skin above the head. Retinae were stimulated using 1 cd.s/m2 flash for an average of 10 traces at 0.1 Hz. Recording filter was set at 300 Hz. ERG responses were analyzed using Espion E^2, and Microsoft excel program. The b-wave amplitude was measured from the trough of the a-wave to the peak of the b-wave, and the a-wave was measured as the difference in amplitude between recording at onset and the trough of the negative deflection. Error bars, SEM. (FIGS. 4, 8, and 9).

Cc1cc2c(s1)Nc1ccccc1N=C2N1CCNCC1 [Metabolite B, N-desmethyl olanzapine]
PROTECTION (%) AT 10 uM (ARPE-19 cells): 129%

Clc1ccc2c(c1)N=C(N1CCNCC1)c1ccccc1N2 [n-desmethly clozapine, N-desmethyl clozapine]
PROTECTION (%) AT 10 uM (ARPE-19 cells): 77%

Cc1cc2c(s1)Nc1ccccc1N=C2N1CCN(C)CC1 [Olanzapine, 2-methyl-4-(4-methylpiperazin-1-yl)-10H-benzo[b]thieno[2,3-e][1,4]diazepine]
PROTECTION (%) AT 10 uM (ARPE-19 cells): 116%
protection of RPE cells from oxidative stress (tBH) induced apoptosis / cell death (ARPE-19 cells; tBH, RPE cells, FIGS. 1A, 2): significantly protects in a dose responsive fashion; also recorded: protect
inhibition of Poly I:C induced IL-8 secretion from RPE cells [1]: inhibits
protection of superior retinal thickness (OCT) (blue light exposed rats [2]): significantly protects
attenuation of hyperoxia induced retinal neovascularization [3]: significantly attenuates
inhibition of laser induced choroidal neovascularization [4]: significantly inhibits
protection of outer nuclear layer (H&E staining) (blue light exposed rats [5]; FIG. 5): significantly protects
protection from retinal rhodopsin loss (immuno-histochemistry) (blue light exposed rats [5]; FIG. 6): significantly protects
inhibition of GFAP upregulation (immuno-histochemistry) (blue light exposed rats [5]; FIG. 7): partially inhibits
protection from RPE65 loss (immuno-histochemistry) (blue light exposed rats [5]; FIG. 7): significantly protects
protection of retinal a- and b-waves (ERG) (blue light exposed rats [6]; IP once per day for 3 days, ERG 7-10 days post blue light, FIG. 4): significantly protects
prevention of ERG alteration (blue light exposed rats [6]; intravitreal, 0.04, 0.2, or 1 ug/eye, 1 hour before blue light, ERG 7-10 days post, FIG. 8): significantly prevents
protection of retinal a- and b-wave signals (ERG) (blue light exposed rats [6]; topical ocular dosing 24 hours (BID) and one hour before blue light, ERG 7-10 days post, FIG. 9): significantly protects

Cc1cc2c(s1)Nc1ccccc1N=C2N1CC[N+](C)([O-])CC1 [Metabolite A, Olanzapine-N-oxide]
PROTECTION (%) AT 10 uM (ARPE-19 cells): 103%
